Measured values as given in patent publication US20230172933A1, “USE OF A COMPOUND OR COMPOSITION COMPRISING AN INHIBITOR OF NLRP1 INFLAMMASOME ACTIVATION FOR THE TREATMENT OF HUMAN AIRWAY INFLAMMATION” (Nanyang Technological University, priority 2020, published 2023).
Entries after “also recorded” stand apart in the source; their conditions may differ.

Assays:
human NLRP1 = experiment: ASC-GFP speck formation in 293T-ASC-GFP-NLRP1-FLAG cells after Talabostat treatment; format: cell-based; conditions: Talabostat 2 μM, 24 hrs, compared to vector-transfected cells
NHBEs = experiment: Cytokine response of Talabostat-treated NHBEs (Luminex array, ELISA); format: cell-based, human
Method: (A) Expression levels of NLRP1 vs. NLRP3 (RNAseq FKPM) in NHBEs. n=21, independent cultures of pooled NHBEs from healthy donors. (B) Expression of NLRP1 vs. NLRP3 in healthy human nasal biopsy. Puncta: positive staining by RNAscope. Nuclei staining: hematoxylin. (C) Overview of cytokine profiling of by HRV16-infected and Talabostat-treated NHBEs. (D) Cells were inoculated with HRV16 at MOI=5 and cultured at 33° C. for 48 hours. Luminex array was performed on conditioned media after removing cell debris. n=3 independent infections and treatment. Cytokines/chemokines that were induced at least 5 fold (p<0.05, Student's t test, lognormal values) are represented by square boxes. […] NHBEs were pretreated with MCC950 (5 μM) or Rupintrivir (10 nM) before HRV16 inoculation or Talabostat (2 μM) treatment. […]
(§1) The following antibodies were used in this study: c-Myc (Santa Cruz Biotechnology #sc-40), HA tag (Santa Cruz Biotechnology, #sc-805), GAPDH (Santa Cruz Biotechnology, #sc-47724), ASC (Adipogen, #AL-177), CASP1 (Santa Cruz Biotechnology, #sc-622), IL1B (R&D systems, #AF-201), FLAG (SigmaAldrich, #F3165), GFP (Abcam, #ab290), NLRP1 (R&D systems, #AF6788), IL18 (Abcam ab207324) and VP2 (QED Bioscience, #18758). HRV16-3Cpro was detected by rabbit serum, a kind gift from Dr. Ann Palmenberg and Dr. James Gern (University of Wisconsin). […]

[1] = test system: 3D human bronchial epithelial cultures; experiment: Talabostat treatment of 3D human bronchial epithelial cultures; format: cell-based; conditions: Talabostat 2 μM
Method: (A) Expression levels of NLRP1 vs. NLRP3 (RNAseq FKPM) in NHBEs. n=21, independent cultures of pooled NHBEs from healthy donors. (B) Expression of NLRP1 vs. NLRP3 in healthy human nasal biopsy. Puncta: positive staining by RNAscope. Nuclei staining: hematoxylin. (C) Overview of cytokine profiling of by HRV16-infected and Talabostat-treated NHBEs. (D) Cells were inoculated with HRV16 at MOI=5 and cultured at 33° C. for 48 hours. Luminex array was performed on conditioned media after removing cell debris. n=3 independent infections and treatment. Cytokines/chemokines that were induced at least 5 fold (p<0.05, Student's t test, lognormal values) are represented by square boxes. […] NHBEs were pretreated with MCC950 (5 μM) or Rupintrivir (10 nM) before HRV16 inoculation or Talabostat (2 μM) treatment. […] (G) Overview of apical HRV infection 3D human bronchial epithelial cultures. (H) Alcian blue (AB)/periodic acid-Schiff (PAS) staining of HRV16-infected (MOI=3) and Talabostat (2 μM)-treated 3D human bronchial epithelial cultures. (1) IL-18 level in apical or basal media 48 hours post-infection or Talabostat treatment. **P<0.01, ***P<0.001, ****P<0.0001 (Two-way ANOVA). n=3 independent infected/treated cultures. (J) Secretion of cleaved IL-1β and IL-18 and ASC oligomerization in HRV16-infected primary NHBEs. […]

N/TERT cells = experiment: Mode of cell death of N/TERT cells by Annexin V and PI inclusion; format: cell-based, human; conditions: Talabostat-treated N/TERT cells; marked by PI inclusion
Method: (A) Expression of Myc-tagged viral proteases in 293T-ASC-GFP-NLRP1-FLAG cells. Two exposure times were shown. Note that Myc-HRV16-3Cpro was lowly expressed but could activate ASC-GFP specks. (B) Representative wide-field fluorescent images of ASC-GFP specks, NLRP1-HA and Myc-tagged proteases. 293T-ASC-GFP cells were co-transfected with NLRP1-HA and Myc-tagged gZiPro, HRV14-3Cpro or HRV14-3Cpro^C146A and fixed 24 hours post transfection. (C) Validation of ASC KO in N/TERT cells. ASC KO #2 was chosen for further experiments. (E) N/TERT KO cells were transfected with the indicated 3Cpro variants and harvested 24 hours post transfection. Conditioned media was analyzed by IL-1β ELISA. **P<0.01 (Two-way ANOVA). n=3 independent transfections. (F) Modes of cell death of Talabostat-treated, or doxycycline-induced Tet-ON HRV14-3Cpro N/TERT cells assayed […] and PI inclusion. Data are representative of one of two independent experiments.
This provides a robust cellular system to determine if 3Cpros can activate the endogenous NLRP1 inflammasome. […] Live-cell imaging of human keratinocytes expressing GFP-tagged ASC further corroborated that HRV14-3Cpro could induce ASC-GFP speck formation (FIG. 1F). […]

NLRP1 = NLRP1 self-oligomerization (BN-PAGE) and cleavage fragment (SDS-PAGE/Western blot) in 293T-NLRP1-FLAG cells transfected with HRV14-3Cpro; format: cell-based, human
human NLRP1 inflammasome = experiment: HRV14-3Cpro-induced ASC-GFP speck formation in 293T-ASC-GFP-NLRP1-FLAG reporter cells; format: cell-based; conditions: 293T-ASC-GFP-NLRP1-FLAG cells transfected with HRV14-3Cpro; MLN4924 1 μM, MG132 2.5 μM, Bortezomib 0.5 μM, phenylalanine 1 mM; 24 hours
[2] = test system: NLRP1 inflammasome in HRV16-infected NHBEs; experiment: HRV16-induced IL-1β and IL-18 secretion in NHBEs (ELISA); format: cell-based, human; conditions: HRV16 MOI=5, 33° C., 48 hours, pre-treated: MLN4924 1 μM, Bortezomib 1 μM, MCC950 5 μM, Rupintrivir 10 nM
Method: (§2) (A) Expression levels of NLRP1 vs. NLRP3 (RNAseq FKPM) in NHBEs. n=21, independent cultures of pooled NHBEs from healthy donors. (B) Expression of NLRP1 vs. NLRP3 in healthy human nasal biopsy. Puncta: positive staining by RNAscope. Nuclei staining: hematoxylin. (C) Overview of cytokine profiling of by HRV16-infected and Talabostat-treated NHBEs. (D) Cells were inoculated with HRV16 at MOI=5 and cultured at 33° C. for 48 hours. Luminex array was performed on conditioned media after removing cell debris. n=3 independent infections and treatment. Cytokines/chemokines that were induced at least 5 fold (p<0.05, Student's t test, lognormal values) are represented by square boxes. […] NHBEs were pretreated with MCC950 (5 μM) or Rupintrivir (10 nM) before HRV16 inoculation or Talabostat (2 μM) treatment. […] (G) Overview of apical HRV infection 3D human bronchial epithelial cultures. (H) Alcian blue (AB)/periodic acid-Schiff (PAS) staining of HRV16-infected (MOI=3) and Talabostat (2 μM)-treated 3D human bronchial epithelial cultures. (1) IL-18 level in apical or basal media 48 hours post-infection or Talabostat treatment. **P<0.01, ***P<0.001, ****P<0.0001 (Two-way ANOVA). n=3 independent infected/treated cultures. (J) Secretion of cleaved IL-1β and IL-18 and ASC oligomerization in HRV16-infected primary NHBEs. Cells were inoculated with HRV16 (MOI=5) or treated with Talabostat (2 μM) for 48 hours at 33° C.
(§3) (A) Endogenous NLRP1, ASC and caspase-1 are indispensable for HRV16-induced IL-18 secretion in NHBEs. Cas9-control, NLRP1, ASC and CASP1 KO NHBEs were infected with HRV16 as before. Conditioned media were harvested 48 hours post-infection. (B) NLRP1 is genetically required for HRV16-induced IL-18 cleavage and ASC oligomerization. Cas9 control, NLRP1 and ASC KO NHBEs were infected with HRV16 as before. Cleaved IL-18 are marked with arrows. (C) Mutating the NLRP1 cleavage site abrogates HRV16-triggered IL-18 secretion in NHBEs. NLRP1 KO NHBEs were rescued with lentiviral constructs expressing FLAG-tagged NLRP1^WT or NLRP1^Q130A, which carried silent mutations at the PAM sites. The rescued cells were infected with HRV16 or treated with Talabostat. Conditioned media was analyzed by IL-18 ELISA. **P<0.01, ***P<0.001, n=3 replicates from one of two independent infections. (D) Q130A abrogates NLRP1 cleavage, IL-18 maturation and ASC oligomerization in NHBEs. NLRP1 KO or NLRP1^WT- or NLRP1^Q130A-rescued cells were infected with HRV16 or treated with Talabostat. Cells were harvested 48 hours post infection. Arrow: NLRP1 cleavage product in lane 8 HRV16. *: Non-specific NLRP1 degradation product that occurs right below the a.a. 131-1213 cleavage fragment. See also FIG. 3E, 5E, 5D. (E) MLN4924 and Bortezomib blocks HRV16-induced IL-18 secretion. NHBEs were pre-treated with MLN4924 (1 μM) or Bortezomib (1 μM) before HRV16 infection or Talabostat treatment. IL-18 levels were measured with ELISA. ****, p<0.0001 (Two-way ANOVA), n=3 independent infections/treatment. (F) MLN4924 and Bortezomib blocks HRV16-induced IL-1β secretion. […] Lysates from HRV16-infected NHBEs in FIGS. 9E-F were analyzed by Western blot 48 hours post HRV16 inoculation.
as §1, with “Wisconsin). Cytokine and chemokine measurements were carried out with human IL-1B ELISA kit (BD, #557953), human IL-18 ELISA kit (MBL Bioscience, #7620) and Immune Monitoring 65-Plex Human ProcartaPlex™ Panel (ThermoFisher EPX650-10065-901).” for “Wisconsin).”

HRV16 = experiment: VP2 maturation in HRV16-infected NHBEs (Western blot); format: cell-based, HRV-A16; conditions: 48 hours post inoculation, MLN4924 1 μM
Method: as §3, with “Arrow: NLRP1 cleavage product in lane 8 HRV16. *: Non-specific NLRP1 degradation product that occurs right below the a.a. 131-1213 cleavage fragment. See also FIG. 3E, 5E, 5D. (E) MLN4924 and Bortezomib blocks HRV16-induced IL-18 secretion. NHBEs were pre-treated with MLN4924 (1 μM) or Bortezomib (1 μM) before HRV16 infection or Talabostat treatment.” left out, “infections/treatment.” for “infections/treatment. (F) MLN4924 and Bortezomib blocks HRV16-induced IL-1β secretion.”, “inoculation. […]” for “inoculation.”

NLRP1 inflammasome = experiment: Talabostat-induced IL-1β secretion in N/TERT keratinocytes; format: cell-based, human; conditions: ELISA of conditioned media
[3] = test system: NLRP1 inflammasome in Talabostat-treated NHBEs; experiment: Talabostat-induced IL-1β and IL-18 secretion in NHBEs (ELISA); format: cell-based, human; conditions: Talabostat 2 μM, pre-treated: MLN4924 1 μM, MCC950 5 μM, Rupintrivir 10 nM
Method: as §2
(A) Endogenous NLRP1, ASC and caspase-1 are indispensable for HRV16-induced IL-18 secretion in NHBEs. Cas9-control, NLRP1, ASC and CASP1 KO NHBEs were infected with HRV16 as before. Conditioned media were harvested 48 hours post-infection. (B) NLRP1 is genetically required for HRV16-induced IL-18 cleavage and ASC oligomerization. Cas9 control, NLRP1 and ASC KO NHBEs were infected with HRV16 as before. Cleaved IL-18 are marked with arrows. […] Conditioned media was analyzed by IL-18 ELISA. **P<0.01, ***P<0.001, n=3 replicates from one of two independent infections. […] IL-18 levels were measured with ELISA. ****, p<0.0001 (Two-way ANOVA), n=3 independent infections/treatment. […] Lysates from HRV16-infected NHBEs in FIGS. 9E-F were analyzed by Western blot 48 hours post HRV16 inoculation.
as §1

[4] = test system: endogenous NLRP1 inflammasome; experiment: Endogenous NLRP1 inflammasome in doxycycline-induced Tet-ON HRV14-3Cpro N/TERT keratinocytes; format: cell-based, human

CC(C)[C@H](N)C(=O)N1CCC[C@H]1B(O)O [Talabostat]
percentage of cells forming ASC-GFP specks (human NLRP1): significant increase | IL-1β secretion (NHBEs; ELISA): significantly secreted | IL-18 induction (cytokine profiling) (NHBEs; Luminex array on conditioned media): most highly induced cytokine | epithelium morphology (Alcian blue/PAS staining) [1]: significant disruption of the epithelium, increased mucin production and goblet cell engorgement | IL-18 level in apical or basal media ([1]; 48 hours): led to IL-18 secretion in both the apical and basal media | mode of cell death (N/TERT cells): exclusively caused lytic cell death

NS(=O)(=O)OC[C@@H]1C[C@@H](n2ccc3c(N[C@H]4CCc5ccccc54)ncnc32)C[C@@H]1O [MLN4924, ((1S,2S,4R)-4-(4-(((S)-2,3-dihydro-1H-inden-1-yl)amino)-7H-pyrrolo[2,3-d]pyrimidin-7-yl)-2-hydroxycyclopentyl)methyl sulfamate]
stabilization of the post-cleavage NLRP1 fragment (a.a. 131-1213) (NLRP1; 293T-NLRP1-FLAG cells transfected with HRV14-3Cpro, Western blot): led to the stabilization | HRV14-3Cpro-induced NLRP1 self-oligomerization (NLRP1; 293T-NLRP1-FLAG cells, BN-PAGE, drugs for 24 hours, MG132 2.5 μM): similarly blocked; also recorded: inhibits | HRV14-3Cpro-induced ASC-GFP speck formation (human NLRP1 inflammasome): blocked; also recorded: abrogate | HRV16-induced IL-1β secretion [2]: completely blocked; also recorded: blocks | HRV16-induced IL-18 secretion [2]: completely blocked; also recorded: blocks | accumulation of mature capsid protein VP2 (3Cpro-dependent VP2 maturation) (HRV16): did not affect; also recorded: does not affect | Talabostat-induced IL-1β secretion (NLRP1 inflammasome): much less dramatic effect | Talabostat-induced IL-1β secretion [3]: only had a modest effect | Talabostat-induced IL-18 secretion [3]: did not affect | ASC oligomerization upon HRV14-3Cpro induction ([4]; doxycycline 24 hours): completely blocked | mature IL-1β secretion upon HRV14-3Cpro induction ([4]; doxycycline 24 hours, Western blot, ELISA): completely blocked | endogenous 3Cpro-induced NLRP1 inflammasome and pyroptosis ([4]; doxycycline with drug for 24 hours): inhibits | stabilization of the post-cleavage NLRP1 fragment ([4]; fragment below detection limit in untreated cells): stabilized
